# ChEMBL document CHEMBL3997821, “Design, synthesis and evaluation of novel pyrazolo-pyrimido[4,5-d]pyrimidine derivatives as potent antibacterial and biofilm inhibitors” (Bioorg Med Chem Lett, 2017)
# The source made the active and inactive calls. No cut-off for these calls is given here.
# Columns and labels:
# Type in all cases: functional
# [1] = tested on: Pseudomonas aeruginosa; test: Antibacterial activity against Pseudomonas aeruginosa MTCC 2453 after 24 hrs by well diffusion method; conditions: MTCC 2453, 24 h
# [2] = tested on: Micrococcus luteus; test: Bactericidal activity against Micrococcus luteus MTCC 2470 after 24 hrs by serial dilution method; conditions: MTCC 2470, 24 h
# [3] = tested on: Raoultella planticola; test: Antibacterial activity against Klebsiella planticola MTCC 530 after 24 hrs by well diffusion method; conditions: MTCC 530, 24 h
# [4] = tested on: Micrococcus luteus; test: Induction of ROS generation in Micrococcus luteus MTCC 2470 mature biofilms at up to 4 ug/ml after 24 hrs by DCFH-DA staining based fluorometric assay
# [5] = tested on: Micrococcus luteus; test: Antibacterial activity against Micrococcus luteus MTCC 2470 after 24 hrs by well diffusion method; conditions: MTCC 2470, 24 h
# [6] = tested on: Staphylococcus aureus; test: Antibiofilm activity against Staphylococcus aureus MLS16 MTCC 2940 after 24 hrs by crystal violet staining based assay; conditions: MLS16 MTCC 2940, 24 h
# [7] = tested on: Staphylococcus aureus; test: Bactericidal activity against Staphylococcus aureus MLS16 MTCC 2940 after 24 hrs by serial dilution method; conditions: MLS16 MTCC 2940, 24 h
# [8] = tested on: Bacillus subtilis; test: Bactericidal activity against Bacillus subtilis MTCC 121 after 24 hrs by serial dilution method; conditions: MTCC 121, 24 h
# [9] = tested on: Bacillus subtilis; test: Antibacterial activity against Bacillus subtilis MTCC 121 after 24 hrs by well diffusion method; conditions: MTCC 121, 24 h
# [10] = tested on: Staphylococcus aureus; test: Antibacterial activity against Staphylococcus aureus MTCC 96 after 24 hrs by well diffusion method; conditions: MTCC 96, 24 h
# [11] = tested on: Escherichia coli; test: Antibacterial activity against Escherichia coli MTCC 739 after 24 hrs by well diffusion method; conditions: MTCC 739, 24 h
# [12] = tested on: Staphylococcus aureus; test: Bactericidal activity against Staphylococcus aureus MTCC 96 after 24 hrs by serial dilution method; conditions: MTCC 96, 24 h
# [13] = tested on: Staphylococcus aureus; test: Antibacterial activity against Staphylococcus aureus MLS16 MTCC 2940 after 24 hrs by well diffusion method; conditions: MLS16 MTCC 2940, 24 h
# [14] = tested on: Bacillus subtilis; test: Antibiofilm activity against Bacillus subtilis MTCC 121 after 24 hrs by crystal violet staining based assay; conditions: MTCC 121, 24 h
# [15] = tested on: Micrococcus luteus; test: Ratio of MBC to MIC for Micrococcus luteus MTCC 2470
# [16] = tested on: Staphylococcus aureus; test: Ratio of MBC to MIC for Staphylococcus aureus MTCC 96
# [17] = tested on: Bacillus subtilis; test: Ratio of MBC to MIC for Bacillus subtilis MTCC 121
# [18] = tested on: Micrococcus luteus; test: Antibiofilm activity against Micrococcus luteus MTCC 2470 after 24 hrs by crystal violet staining based assay; conditions: MTCC 2470, 24 h
# [19] = tested on: Staphylococcus aureus; test: Ratio of MBC to MIC for Staphylococcus aureus MLS16 MTCC 2940
# [20] = tested on: Staphylococcus aureus; test: Antibiofilm activity against Staphylococcus aureus MTCC 96 after 24 hrs by crystal violet staining based assay; conditions: MTCC 96, 24 h
Structure (SMILES),MIC [1] [µg/mL],MBC [2] [µg/mL],MIC [3] [µg/mL],Activity [4],MIC [5] [µg/mL],IC50 [6] [µg/mL],MBC [7] [µg/mL],MBC [8] [µg/mL],MIC [9] [µg/mL],MIC [10] [µg/mL],MIC [11] [µg/mL],MBC [12] [µg/mL],MIC [13] [µg/mL],IC50 [14] [µg/mL],Ratio [15],Ratio [16],Ratio [17],IC50 [18] [µg/mL],Ratio [19],IC50 [20] [µg/mL]
O=C(O)c1cn(C2CC2)c2cc(N3CCNCC3)c(F)cc2c1=O [CIPROFLOXACIN],0.9,1.9,0.9,Active,0.9,0.4,0.9,0.9,0.9,0.9,0.9,1.9,0.9,–,–,–,–,–,–,–
Cn1c2c(c(=O)n(C)c1=O)C(c1cn(-c3ccccc3)nc1-c1ccccc1)N(c1ccc(Cl)cc1)C=N2 (stereo unspecified),> 125,31.2,> 125,–,> 125,–,62.5,62.5,> 125,> 125,> 125,62.5,> 125,–,–,–,–,–,–,–
Cn1c2c(c(=O)n(C)c1=O)C(c1cn(-c3ccccc3)nc1-c1ccccc1)N(c1ccccc1)C=N2 (stereo unspecified),> 125,–,> 125,–,7.8,–,–,–,62.5,31.2,> 125,–,15.6,–,–,–,–,–,–,–
Cn1c2c(c(=O)n(C)c1=O)C(c1cn(-c3ccccc3)nc1-c1cccs1)N(c1ccc(Cl)cc1)C=N2 (stereo unspecified),> 125,31.2,> 125,–,15.6,–,31.2,31.2,15.6,31.2,> 125,31.2,15.6,–,–,–,–,–,–,–
Cn1c2c(c(=O)n(C)c1=O)C(c1cn(-c3ccccc3)nc1-c1cccs1)N(c1ccccc1)C=N2 (stereo unspecified),> 125,–,> 125,–,15.6,–,–,–,31.2,31.2,> 125,–,15.6,–,–,–,–,–,–,–
Cc1ccc(-c2nn(-c3ccccc3)cc2C2c3c(n(C)c(=O)n(C)c3=O)N=CN2c2ccccc2)cc1 (stereo unspecified),> 125,–,> 125,–,> 125,–,–,–,> 125,> 125,> 125,–,> 125,–,–,–,–,–,–,–
Cn1c2c(c(=O)n(C)c1=O)C(c1cn(-c3ccccc3)nc1-c1ccc([N+](=O)[O-])cc1)N(c1cccc([N+](=O)[O-])c1)C=N2 (stereo unspecified),> 125,62.5,> 125,–,31.2,–,> 125,> 125,> 125,> 125,> 125,> 125,> 125,–,–,–,–,–,–,–
Cc1ccc(N2C=Nc3c(c(=O)n(C)c(=O)n3C)C2c2cn(-c3ccccc3)nc2-c2ccccc2)cc1 (stereo unspecified),> 125,–,> 125,–,> 125,–,–,–,> 125,> 125,> 125,–,> 125,–,–,–,–,–,–,–
COc1ccc(N2C=Nc3c(c(=O)n(C)c(=O)n3C)C2c2cn(-c3ccccc3)nc2-c2ccccc2)cc1 (stereo unspecified),> 125,–,> 125,–,> 125,–,–,–,> 125,> 125,> 125,–,> 125,–,–,–,–,–,–,–
Cn1c2c(c(=O)n(C)c1=O)C(c1cn(-c3ccccc3)nc1-c1ccc([N+](=O)[O-])cc1)N(c1ccc(Cl)cc1)C=N2 (stereo unspecified),> 125,–,> 125,–,> 125,–,–,–,> 125,> 125,> 125,–,> 125,–,–,–,–,–,–,–
Cc1ccc(N2C=Nc3c(c(=O)n(C)c(=O)n3C)C2c2cn(-c3ccccc3)nc2-c2cccs2)cc1 (stereo unspecified),> 125,31.2,> 125,–,15.6,–,31.2,31.2,31.2,15.6,> 125,31.2,15.6,–,–,–,–,–,–,–
COc1ccc(N2C=Nc3c(c(=O)n(C)c(=O)n3C)C2c2cn(-c3ccccc3)nc2-c2ccc([N+](=O)[O-])cc2)cc1 (stereo unspecified),> 125,15.6,> 125,–,15.6,–,31.2,31.2,31.2,31.2,> 125,62.5,31.2,–,–,–,–,–,–,–
Cc1ccc(-c2nn(-c3ccccc3)cc2C2c3c(n(C)c(=O)n(C)c3=O)N=CN2c2ccc(C)cc2)cc1 (stereo unspecified),> 125,15.6,> 125,–,7.8,8.2,15.6,31.2,7.8,7.8,> 125,15.6,15.6,3.6,2,2,2,3.3,2,4.2
Cn1c2c(c(=O)n(C)c1=O)C(c1cn(-c3ccccc3)nc1-c1ccc(Cl)cc1)N(c1ccccc1)C=N2 (stereo unspecified),> 125,–,> 125,–,> 125,–,–,–,> 125,> 125,> 125,–,> 125,–,–,–,–,–,–,–
Cc1ccc(N2C=Nc3c(c(=O)n(C)c(=O)n3C)C2c2cn(-c3ccccc3)nc2-c2ccc([N+](=O)[O-])cc2)cc1 (stereo unspecified),> 125,15.6,> 125,–,15.6,9.5,15.6,31.2,7.8,15.6,> 125,31.2,7.8,18.3,2,2,2,10.1,2,12.6
COc1ccc(N2C=Nc3c(c(=O)n(C)c(=O)n3C)C2c2cn(-c3ccccc3)nc2-c2ccc(Cl)cc2)cc1 (stereo unspecified),> 125,15.6,> 125,–,7.8,–,15.6,31.2,31.2,15.6,> 125,31.2,15.6,–,–,–,2,–,2,–
Cc1ccc(-c2nn(-c3ccccc3)cc2C2c3c(n(C)c(=O)n(C)c3=O)N=CN2c2cccc([N+](=O)[O-])c2)cc1 (stereo unspecified),> 125,–,> 125,–,> 125,–,–,–,> 125,> 125,> 125,–,> 125,–,–,–,–,–,–,–
COc1ccc(N2C=Nc3c(c(=O)n(C)c(=O)n3C)C2c2cn(-c3ccccc3)nc2-c2cccs2)cc1 (stereo unspecified),> 125,15.6,> 125,–,15.6,–,31.2,31.2,31.2,15.6,> 125,31.2,15.6,–,–,–,–,–,–,–
COc1ccc(N2C=Nc3c(c(=O)n(C)c(=O)n3C)C2c2cn(-c3ccccc3)nc2-c2ccc(C)cc2)cc1 (stereo unspecified),> 125,15.6,> 125,–,> 125,–,31.2,62.5,> 125,> 125,> 125,62.5,> 125,–,–,–,–,–,–,–
Cn1c2c(c(=O)n(C)c1=O)C(c1cn(-c3ccccc3)nc1-c1ccc(Cl)cc1)N(c1ccc(Cl)cc1)C=N2 (stereo unspecified),> 125,–,> 125,–,> 125,–,–,–,> 125,> 125,> 125,–,> 125,–,–,–,–,–,–,–
Cc1ccc(N2C=Nc3c(c(=O)n(C)c(=O)n3C)C2c2cn(-c3ccccc3)nc2-c2ccc(Cl)cc2)cc1 (stereo unspecified),> 125,31.2,> 125,–,15.6,–,> 125,> 125,> 125,> 125,> 125,> 125,> 125,–,–,–,–,–,–,–
Cn1c2c(c(=O)n(C)c1=O)C(c1cn(-c3ccccc3)nc1-c1ccc(Cl)cc1)N(c1cccc([N+](=O)[O-])c1)C=N2 (stereo unspecified),> 125,–,> 125,–,> 125,–,–,–,> 125,> 125,> 125,–,> 125,–,–,–,–,–,–,–
Cn1c2c(c(=O)n(C)c1=O)C(c1cn(-c3ccccc3)nc1-c1ccc([N+](=O)[O-])cc1)N(c1ccccc1)C=N2 (stereo unspecified),> 125,–,> 125,–,> 125,–,–,–,> 125,> 125,> 125,–,> 125,–,–,–,–,–,–,–
Cn1c2c(c(=O)n(C)c1=O)C(c1cn(-c3ccccc3)nc1-c1cccs1)N(c1cccc([N+](=O)[O-])c1)C=N2 (stereo unspecified),> 125,–,> 125,–,> 125,–,–,–,> 125,> 125,> 125,–,> 125,–,–,–,–,–,–,–
